According to ChEMBL document CHEMBL5506020 (J Med Chem, 2024):
Activity calls are given as the source filed them. The calls are words filed in the database; no cut-off is given here.

Legend:
[1] = test system: MV4-11; test: Antiproliferative activity against human MV4-11 cells incubated for 120 hrs by Cell-Titer Glo assay; conditions: MV4-11, 120 h
[2] = test system: MOLM-13; test: Antiproliferative activity against human MOLM-13 cells incubated for 72 hrs by Cell-Titer Glo assay; conditions: MOLM-13, 72 h
[3] = Antiproliferative activity against human MOLM16 cells incubated for 72 hrs by Cell-Titer Glo assay; conditions: MOLM16, 72 h
[4] = test system: THP-1; test: Antiproliferative activity against human THP-1 cells upto 10 uM; type: functional, cell-based
[5] = test system: EOL1; test: Antiproliferative activity against human EOL1 cells upto 10 uM; type: functional, cell-based
[6] = test system: KG-1; test: Antiproliferative activity against human KG-1 cells upto 10 uM; type: functional, cell-based
[7] = test system: MV4-11; test: Downregulation of c-Myc protein level in human MV4-11 cells at 50 nM incubated for 24 hrs by Western blotting analysis; type: functional, cell-based
[8] = test system: MOLM-16; test: Downregulation of c-Myc protein level in human MOLM16 cells at 50 nM incubated for 24 hrs by Western blotting analysis; type: functional, cell-based
[9] = test system: MOLM-13; test: Downregulation of c-Myc protein level in human MOLM-13 cells at 50 nM incubated for 24 hrs by Western blotting analysis; type: functional, cell-based
[10] = test system: MV4-11; test: Downregulation of p300 protein level in human MV4-11 cells assessed as fold decrease at 10 nM incubated for 6 hrs by proteomic blotting analysis; type: functional, cell-based
[11] = test system: MV4-11; test: Downregulation of BRD2 protein level in human MV4-11 cells at 10 nM incubated for 6 hrs by proteomic analysis; type: functional, cell-based
[12] = test system: MV4-11; test: Downregulation of BRD3 protein level in human MV4-11 cells at 10 nM incubated for 6 hrs by proteomic analysis; type: functional, cell-based
[13] = test system: MV4-11; test: Downregulation of BRD4 protein level in human MV4-11 cells at 10 nM incubated for 6 hrs by proteomic analysis; type: functional, cell-based
[14] = test system: MV4-11; test: Downregulation of SMARCA4 protein level in human MV4-11 cells at 10 nM incubated for 6 hrs by proteomic analysis; type: functional, cell-based
[15] = test system: MV4-11; test: Downregulation of TRIM24 protein level in human MV4-11 cells at 10 nM incubated for 6 hrs by proteomic analysis; type: functional, cell-based
[16] = test system: MV4-11; test: Downregulation of IKZF1 level in human MV4-11 cells at 10 uM incubated for 6 hrs by Western blotting analysis; type: functional, cell-based
[17] = test system: MV4-11; test: Downregulation of ZFP91 protein level in human MV4-11 cells at 10 nM incubated for 6 hrs by proteomic analysis; type: functional, cell-based
[18] = test system: MV4-11; test: Downregulation of GSPT1 protein level in human MV4-11 cells at 10 nM incubated for 6 hrs by proteomic analysis; type: functional, cell-based
[19] = test system: MV4-11; test: Downregulation of IKZF1 mRNA level in human MV4-11 cells at 100 nM incubated for 6 hrs by qRT-PCR analysis; type: functional, cell-based
[20] = test system: MV4-11; test: Downregulation of CBP mRNA level in human MV4-11 cells at 100 nM incubated for 6 hrs by qRT-PCR analysis; type: functional, cell-based
[21] = test system: MV4-11; test: Downregulation of p300 mRNA level in human MV4-11 cells at 100 nM incubated for 6 hrs by qRT-PCR analysis; type: functional, cell-based
[22] = test system: MV4-11; test: Downregulation of TP53RK protein in human MV4-11 cells at 10 nM incubated for 6 hrs by proteomic analysis; type: functional, cell-based
[23] = test system: MV4-11; test: Downregulation of STAT1 protein in human MV4-11 cells at 10 nM incubated for 6 hrs by proteomic analysis; type: functional, cell-based
[24] = test system: MV4-11; test: Downregulation of STAT2 protein in human MV4-11 cells at 10 nM incubated for 6 hrs by proteomic analysis; type: functional, cell-based
[25] = test system: MV4-11; test: Downregulation of IRF4 protein in human MV4-11 cells at 10 nM incubated for 6 hrs by proteomic analysis; type: functional, cell-based
[26] = test system: MV4-11; test: Downregulation of CDK5 protein in human MV4-11 cells at 10 nM incubated for 6 hrs by proteomic analysis; type: functional, cell-based
[27] = test system: MV4-11; test: Downregulation of KRAS protein in human MV4-11 cells at 10 nM incubated for 6 hrs by proteomic analysis; type: functional, cell-based
[28] = test system: MV4-11; test: Antitumor activity against human MV4-11 cells xenografted in NOD-SCID mouse assessed as tumor growth inhibition at 5 mg/kg, ip administered every other day for 2 weeks; type: functional; conditions: MV4-11, 336 h, read-out: TGI
[29] = Toxicity in NOD/SCID mouse xenografted with human MV4-11 cells assessed as body weight loss at 5 mg/kg, ip administered every other day for 2 weeks; type: organism-based; conditions: in vivo, 336 h
[30] = test system: Mus musculus; test: In vivo induction of CBP degradation in NOD/SCID mouse tumor xenografted with human MV4-11 cells at 5 mg/kg, ip administered every other day for 2 weeks by immunoblotting analysis; type: functional, organism-based
[31] = Toxicity in NOD/SCID mouse xenografted with human MV4-11 cells assessed as lymphocyte infiltration in liver at 5 mg/kg, ip administered every other day for 2 weeks by H and E staining based assay; type: organism-based; conditions: in vivo, 336 h
[32] = Toxicity in NOD/SCID mouse xenografted with human MV4-11 cells assessed as aggregation of multinucleated giant cells in spleen at 5 mg/kg, ip administered every other day for 2 weeks by H and E staining based assay; type: organism-based; conditions: in vivo, 336 h
[33] = Toxicity in NOD/SCID mouse xenografted with human MV4-11 cells assessed as effect on heart at 5 mg/kg, ip administered every other day for 2 weeks by H and E staining based assay; type: organism-based; conditions: in vivo, 336 h
[34] = Toxicity in NOD/SCID mouse xenografted with human MV4-11 cells assessed as effect on lung at 5 mg/kg, ip administered every other day for 2 weeks by H and E staining based assay; type: organism-based; conditions: in vivo, 336 h
[35] = Toxicity in NOD/SCID mouse xenografted with human MV4-11 cells assessed as effect on kidney at 5 mg/kg, ip administered every other day for 2 weeks by H and E staining based assay; type: organism-based; conditions: in vivo, 336 h

With `Cc1noc(C)c1-c1ccc2c(c1)nc([C@@H]1CCCC(=O)N1c1ccc(F)c(F)c1)n2C1CCN(CC(=O)Nc2cnc(-c3ccc(CNc4cccc5c4C(=O)N(C4CCC(=O)NC4=O)C5=O)cc3)nc2)CC1` (stereo not given in full) the IC50 [1] was 0.9 nM, the IC50 [2] was 47 nM and the IC50 [3] was 5.5 nM. For the same compound, the Activity [4] was “inactive”, the Activity [5] was “inactive” and the Activity [6] was “inactive”. For the same compound, the Activity [7] was “Active”, the Activity [8] was “Active” and the Activity [9] was “Active”. For the same compound, the Activity [10] was “inactive”, the Activity [11] was “inactive” and the Activity [12] was “inactive”. For the same compound, the Activity [13] was “inactive”, the Activity [14] was “inactive” and the Activity [15] was “inactive”. For the same compound, the Activity [16] was “Active”, the Activity [17] was “inactive” and the Activity [18] was “inactive”. The Activity [19] was “Active”, the Activity [20] was “inactive” and the Activity [21] was “inactive”. For the same compound, the Activity [22] was “Active”, the Activity [23] was “Active” and the Activity [24] was “Active”. The Activity [25] was “Active”, the Activity [26] was “Active” and the Activity [27] was “Active”. The inhibition in vivo at 5 mg/kg [28] was 93%, the Activity [29] was “Non-Toxic” and the Activity [30] was “Active”. For the same compound, the Activity [31] was “Toxic”, the Activity [32] was “Toxic” and the Activity [33] was “Non-Toxic”. The Activity [34] was “Non-Toxic” and the Activity [35] was “Non-Toxic”.
